Measured values as given in article PMC11547505 (Molecules, 2024).
Like-named read-outs stand apart in the source and are kept apart here.

Columns and labels:
SARS-CoV-2 [1] = test system: SARS-CoV-2; parameters: method as in PMID 33290767, PMID 35456990, PMID 33671463; conditions: Vero cells; read-out: IC50 against SARS-CoV-2; cited from earlier work
in vitro [2] = conditions: African green monkey
SARS-CoV-2 [3] = assay: Anti-SARS-CoV-2 virus yield reduction assay (qRT-PCR) on Vero cells; conditions: for Anti-SARS-CoV-2 Activity, % Inhibition at 10 µM: 0.1 MOI, virus yield reduction qRT-PCR; for EC50: read-out: Anti-SARS-CoV-2 Activity, EC50, antiviral dose–response, 2 days post-treatment
in vitro [4] = assay: in vitro
[5] = target: SARS-CoV-2 2′-O-MTase (Nsp10–16) (Severe acute respiratory syndrome coronavirus 2, UniProt P0DTD1); assay: MTaseGlo coupled assay of Nsp10–16 RNA methyltransferase activity; type: biochemical; conditions: 25 nM Nsp10–16, 300 nM Cap-0 RNA, 5 µM SAM, 15 min; read-out: 2′-O-MTase Inhibition IC50
SARS-CoV-2 2′-O-MTase = target: SARS-CoV-2 2′-O-MTase; parameters: method as in PMID 33874769; conditions: control nucleoside-based methyltransferase inhibitor; read-out: 2′-O-MTase Inhibition IC50; cited from earlier work
[6] = peripheral blood mononuclear (PBM) cells

SMILES: C=C(C)[C@@H]1CCC(C)=C[C@H]1c1c(O)cc(CCCCC)cc1O [CBD, cannabidiol]
- IC50 (SARS-CoV-2 [1]): 7.9 µM

SMILES: Cc1ccc2c(c1)-c1c(ccc(C(=O)c3ccc(O)cc3O)c1O)OC2(C)C [CPM-1, (2,4-dihydroxyphenyl)(1-hydroxy-6,6,9-trimethyl-6H-benzo[c]chromen-2-yl)methanone]
- CC50 (in vitro [2]): > 100 µM
- Anti-SARS-CoV-2 Activity, % Inhibition at 10 µM (SARS-CoV-2 [3]): 98.9%
- EC50 (SARS-CoV-2 [3]): 7.65 µM
- CC50 (in vitro [4]): > 100 µM
- IC50 [5]: 1.5 ± 0.2 µM

SMILES: Cc1ccc2c(c1)-c1cc(C(=O)c3ccc(O)cc3O)c(O)cc1OC2(C)C [CPM-2, (2,4-dihydroxyphenyl)(3-hydroxy-6,6,9-trimethyl-6H-benzo[c]chromen-2-yl)methanone]
- CC50 (in vitro [2]): 55.4 µM
- Anti-SARS-CoV-2 Activity, % Inhibition at 10 µM (SARS-CoV-2 [3]): 98.1%
- EC50 (SARS-CoV-2 [3]): 8.6 µM
- CC50 (in vitro [4]): 41.2 µM
- IC50 [5]: 6.7 ± 0.5 µM

SMILES: CCC(CC)COC(=O)[C@H](C)N[P@](=O)(OC[C@H]1O[C@@](C#N)(c2ccc3c(N)ncnn23)[C@H](O)[C@@H]1O)Oc1ccccc1 [Remdesivir, reference compound]
- CC50 (in vitro [2]; Vero cells (kidney)): > 100 µM
- Anti-SARS-CoV-2 Activity, % Inhibition at 10 µM (SARS-CoV-2 [3]): 99.9%
- EC50 (SARS-CoV-2 [3]): 2.3 µM
- CC50 (in vitro [4]; [6]): 2 µM

SMILES: Nc1ncnc2c1ncn2[C@@H]1O[C@H](C[C@@H](N)CC[C@H](N)C(=O)O)[C@@H](O)[C@H]1O [Sinefungin]
- IC50 (SARS-CoV-2 2′-O-MTase): 3.4 ± 0.4 µM

SMILES: CC1=CC[C@@H]2[C@@H](C1)c1c(ccc(C(=O)c3ccc(O)cc3O)c1O)OC2(C)C [TPM-1, (2,4-dihydroxyphenyl)((6aR,10aR)-1-hydroxy-6,6,9-trimethyl-6a,7,10,10a-tetrahydro-6H-benzo[c]chromen-2-yl)methanone]
- CC50 (in vitro [2]; Vero cells (kidney)): 13.2 µM
- Anti-SARS-CoV-2 Activity, % Inhibition at 10 µM (SARS-CoV-2 [3]): 99.3%
- EC50 (SARS-CoV-2 [3]): 4.3 µM
- CC50 (in vitro [4]; [6]): 59.2 µM
- IC50 [5]: 2.8 ± 0.5 µM

SMILES: CC1=CC[C@@H]2[C@@H](C1)c1cc(C(=O)c3ccc(O)cc3O)c(O)cc1OC2(C)C [TPM-2, (2,4-dihydroxyphenyl)((6aR,10aR)-3-hydroxy-6,6,9-trimethyl-6a,7,10,10a-tetrahydro-6H-benzo[c]chromen-2-yl)methanone]
- CC50 (in vitro [2]; Vero cells (kidney)): 45.2 µM
- Anti-SARS-CoV-2 Activity, % Inhibition at 10 µM (SARS-CoV-2 [3]): 98.9%
- EC50 (SARS-CoV-2 [3]): 7.8 µM
- CC50 (in vitro [4]; [6]): 34.9 µM
- IC50 [5]: 6.4 ± 1.5 µM

SMILES: CCCCCc1cc(O)c2c(c1)OC(C)(C)[C@@H]1CCC(C)=C[C@@H]21 [Δ^9-THC, delta-9-tetrahydrocannabinol]
- IC50 (SARS-CoV-2 [1]): 10.3 µM
